One test has as its target Recombinant human FIH-1 (Homo sapiens, UniProt Q9NWT6). Nature of the test: FIH dose-response activity assay. In kind it is biochemical.
The target of another test is Recombinant human PHD2 (Homo sapiens, UniProt Q9GZT9). The experiment in a line: PHD2 dose-response activity assay. As to conditions: sub-saturating αKG. In kind it is biochemical.
The target in test [1] is FIH. The settings on record: cited from earlier work.
Test [2] has as its system FIH. As to conditions: read-out: KM (Michaelis constant for αKG), FIH; cited from earlier work.

Like-named read-outs stand apart in the source and are kept apart here.

Sequence of Recombinant human FIH-1 (Q9NWT6 whole entry): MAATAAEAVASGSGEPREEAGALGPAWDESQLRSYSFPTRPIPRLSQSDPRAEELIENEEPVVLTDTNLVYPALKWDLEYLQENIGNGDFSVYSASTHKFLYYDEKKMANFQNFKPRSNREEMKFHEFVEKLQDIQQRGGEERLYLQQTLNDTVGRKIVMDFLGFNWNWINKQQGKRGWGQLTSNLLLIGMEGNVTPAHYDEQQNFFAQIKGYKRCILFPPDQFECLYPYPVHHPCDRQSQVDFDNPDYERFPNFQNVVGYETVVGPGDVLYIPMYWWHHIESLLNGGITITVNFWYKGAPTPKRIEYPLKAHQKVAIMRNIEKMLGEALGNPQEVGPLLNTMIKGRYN
Sequence of Recombinant human PHD2 (Q9GZT9 177-426): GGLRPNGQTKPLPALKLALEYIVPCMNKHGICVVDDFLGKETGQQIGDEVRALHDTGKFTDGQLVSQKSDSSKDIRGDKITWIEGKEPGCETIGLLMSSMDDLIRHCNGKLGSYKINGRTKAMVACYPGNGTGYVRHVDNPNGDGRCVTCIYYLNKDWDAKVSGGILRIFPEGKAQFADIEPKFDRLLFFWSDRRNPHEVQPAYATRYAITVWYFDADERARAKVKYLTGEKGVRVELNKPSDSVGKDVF

One may read the IC50 as the concentration that inhibits the measured activity by half. Consider `O=C(O)c1cc(=O)c(O)co1` [Compound 5, 5-Hydroxy-4-oxo-4H-pyran-2-carboxylic acid], for which the IC50 on Recombinant human FIH-1 was found to be 50 µM.
The same measure, in the same setting: next, `Cc1c(O)c(=O)ccn1C` [Compound 7, 3-Hydroxy-1,2-dimethyl-4(1H)-pyridinone]: 30 µM; `O=c1cc(CO)occ1O` [Compound 4, 5-Hydroxy-2-hydroxymethyl-4-pyrone]: 170 µM; `CC(C)(C)c1ccc(O)c(O)c1` [Compound 10, 4-tert-Butylcatechol]: 120 µM.
Turning to `Cc1ccc(C#N)c(=O)[nH]1` [Compound 1, 3-Cyano-6-methyl-2(H) pyridinone], the “inhibition toward PHD2” value at Recombinant human PHD2 is recorded as “no inhibition”. Also, at Recombinant human FIH-1 (dose response, sub-saturating αKG), the “inhibition toward FIH” value was “no inhibition”. The IC50 on Recombinant human FIH-1 (read-out: FIH IC50, 10 µM αKG, 0.5 µM FIH, 50 mM HEPES pH 7.50, 37.0 °C) was above 1000 µM.
Regarding `Oc1cccnc1O` [Compound 3, 2,3-Dihydroxypyridine], the IC50 on Recombinant human FIH-1 was 75 µM.
For orientation: Ki means a measure of affinity in units of concentration, obtained from inhibition or displacement. Turning to N-oxalyl-D-phenylalanine, the Ki at FIH [1] is 90 µM.
For the compound `O=[N+]([O-])c1ccc(O)c(O)c1` [Compound 8, 4-Nitrocatechol], the IC50 on Recombinant human FIH-1 came to 10 µM.
The same measure, in the same setting: the value for `Cc1ccc(O)c(O)c1` [Compound 9, 4-Methylcatechol] was 50 µM; that for `Cc1occc(=O)c1O` [Compound 6, 3-Hydroxy-2-methyl-4-pyrone] was 70 µM.
One may read the Km as the substrate concentration at which the rate is half of its maximum. For `O=C(O)CCC(=O)C(=O)O` [αKG, alpha-ketoglutarate], the Km with FIH [2] was 22 ± 6 µM.

Source of the values: article PMC3525482 (Journal of inorganic biochemistry, 2012).
